ChEMBL document CHEMBL5385973, “Progress in small-molecule inhibitors targeting PD-L1” (RSC Med Chem, 2024)
pEC50, pIC50: −log10 of the molar value.

Assays:
[1] = molecular target: T1, Programmed cell death protein 1/Programmed cell death 1 ligand 1 (Homo sapiens, UniProt Q9NZQ7); assay: Inhibition of human PD-1/PD-L1 interaction incubated for 24 hrs by HTRF assay; type: protein-complex assay
[2] = molecular target: T1, Programmed cell death protein 1/Programmed cell death 1 ligand 1; assay: Inhibition of PD-1/PD-L1 (unknown origin) protein-protein interaction incubated for 15 mins by TR-FRET assay; type: protein-complex assay
[3] = molecular target: Programmed cell death 1 ligand 1 (Homo sapiens) (UniProt Q9NZQ7); assay: Binding affinity to PD-L1 (unknown origin) assessed as Gibbs free energy change
[4] = molecular target: T1, Programmed cell death protein 1/Programmed cell death 1 ligand 1; assay: Inhibition of PD-1/PD-L1 (unknown origin) interaction incubated for 2 hr by TR-FRET assay; type: protein-complex assay
Jurkat = assay: Induction of T cell activation in human Jurkat T cells overexpressing PD-1 co-cultured with Chinese hamster CHO cells overexpressing PD-L1 assessed as increase in luciferase activity incubated for 6 hrs by Bio-GloTM reagent based immune checkpoint blockade assay; type: functional
[5] = molecular target: T1, Programmed cell death protein 1/Programmed cell death 1 ligand 1; assay: Inhibition of PD-1/PD-L1 (unknown origin) interaction; type: protein-complex assay
[6] = molecular target: T1, Programmed cell death protein 1/Programmed cell death 1 ligand 1; assay: Inhibition of PD-1/PD-L1 (unknown origin) interaction incubated for 1 hr by HTRF assay; type: protein-complex assay
[7] = molecular target: T1, Programmed cell death protein 1/Programmed cell death 1 ligand 1; assay: Inhibition of PD-1/PD-L1 interaction (unknown origin) by AlphaLISA assay relative to control; type: protein-complex assay
[8] = molecular target: T1, Programmed cell death protein 1/Programmed cell death 1 ligand 1; assay: Inhibition of PD-1 (unknown origin)/PD-L1 (unknown origin) interaction by HTRF binding assay; type: protein-complex assay
[9] = molecular target: T1, Programmed cell death protein 1/Programmed cell death 1 ligand 1; assay: Inhibition of human […] interaction incubated for 15 mins by TR-FRET assay; type: protein-complex assay
[10] = molecular target: T1, Programmed cell death protein 1/Programmed cell death 1 ligand 1; assay: Inhibition of PD-1/PD-L1 interaction (unknown origin) by TR-FRET assay; type: protein-complex assay

T1 sequence (Q15116 whole entry): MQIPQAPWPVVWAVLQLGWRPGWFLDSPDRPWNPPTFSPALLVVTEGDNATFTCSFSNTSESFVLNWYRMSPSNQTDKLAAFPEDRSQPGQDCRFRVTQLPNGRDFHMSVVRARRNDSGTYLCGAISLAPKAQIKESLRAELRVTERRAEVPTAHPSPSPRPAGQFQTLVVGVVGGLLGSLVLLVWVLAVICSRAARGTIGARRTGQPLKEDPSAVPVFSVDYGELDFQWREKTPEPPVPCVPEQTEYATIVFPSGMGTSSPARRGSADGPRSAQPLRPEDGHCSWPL
T1 sequence (Q9NZQ7 whole entry): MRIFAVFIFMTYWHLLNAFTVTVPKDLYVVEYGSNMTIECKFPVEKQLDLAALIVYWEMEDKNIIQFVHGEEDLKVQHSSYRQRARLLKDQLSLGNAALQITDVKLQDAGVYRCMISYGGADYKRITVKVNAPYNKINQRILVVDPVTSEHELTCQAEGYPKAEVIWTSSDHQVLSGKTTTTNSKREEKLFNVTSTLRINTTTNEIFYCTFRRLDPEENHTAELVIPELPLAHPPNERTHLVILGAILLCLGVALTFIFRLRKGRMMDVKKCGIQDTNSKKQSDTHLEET
Programmed cell death 1 ligand 1 (Homo sapiens), sequence (Q9NZQ7 whole entry): as above

With `Cc1c(/C=C/c2ccc(CNC(C)(CO)C(=O)O)cc2C(F)(F)F)cccc1-c1ccc2c(c1)OCCO2` (centres undefined) the pIC50 [1] was 7.74.
In the case of `Cc1cc(/C=C/c2ccc3cc(N(C)C)ccc3[n+]2C)c(C)n1-c1ccccc1`, the pIC50 [2] was 7.53.
In the case of `Fc1cccc(-c2nccc(N[C@@H]3CO[C@@H]4[C@H]3OC[C@H]4NCc3ccccn3)n2)c1`, the deltaG [3] was -32 kcal/mol.
`Cn1nc(Nc2cccc(-c3ccc4c(c3)OCCO4)c2Cl)c2ccc(CN[C@H](CO)C(=O)O)cc21` gave a pIC50 [4] of 8.02 and a pEC50 (Jurkat) of 5.79.
For `Cc1c(COc2cc(OCc3cccc(C#N)c3)c(CN3C[C@H](O)C[C@@H]3C(=O)O)cc2Cl)cccc1-c1ccc2c(c1)OCCO2`, the deltaG [3] was -34 kcal/mol.
`O=C(O)[C@H](CO)NCc1ccc(Nc2nsc3c(-c4ccc5c(c4)OCCO5)cccc23)c(Br)c1` was tested, and the pIC50 [5] was 8.24.
`Cc1c(COc2cc(OCc3ccc(OC(F)(F)F)nc3)c(N3CCCCC3C(=O)O)cc2Cl)cccc1-c1ccccc1` (centres undefined) was tested, and the pIC50 [6] was 7.25.
With `Cc1c(COc2cc(OCc3cncc(C#N)c3)c(CN(CCCN(C)C)CCS(=O)(=O)O)cc2Cl)cccc1-c1ccc2c(c1)OCCO2` the pIC50 [7] was 8.57.
With `CC(C)OC(=O)[C@H](CO)NCc1cc(Cl)c(OCc2cccc(-c3ccccc3)c2Br)cc1OCc1cccnc1` the pIC50 [8] was 7.34.
`CS(=O)(=O)c1cncc(CCc2nc(OCc3cccc(-c4cccc(-c5ccc6c(c5)C[C@H](N)C6)c4Cl)c3Cl)c(Br)cc2CN2CCCC[C@@H]2C(=O)O)c1` gave a pIC50 [9] of 10.05.
For `Cc1c(COc2cc(OCc3cncc(C#N)c3)c(CNC(C)(C)C(=O)O)cc2Cl)cccc1-c1ccccc1`, the pIC50 [7] was 8.57.
`Cc1c(COc2cc(OCc3cccc(C#N)c3)c(CNC(CO)(CO)CO)cc2Cl)cccc1-c1cccc(-c2cc(C(=O)N3CC[C@@H](O)C3)no2)c1` was tested, and the pIC50 [10] was 7.64.
Work on `O=C(O)[C@H](CO)NCc1cc(Cl)c(OCc2cccc(-c3ccccc3)c2Br)cc1OCc1cccnc1` yielded a pIC50 [8] of 8.96.
